Measurements: patent US12624038B2, “Molecules and methods related to treatment of uncontrolled cellular proliferation” (ST. JUDE CHILDREN'S RESEARCH HOSPITAL, priority 2019, dated 2026)
Entries after “also recorded” stand apart in the source; their conditions may differ. Read-outs that look alike come from different tables or passages of the source.

Key:
TYK2 = TYK2 (Homo sapiens, UniProt P29597); test: KdELECT Kd measurement (KINOMEscan platform), TYK2; assay type: binding; parameters: purchased Eurofins DiscoveRx; settings: read-out: Kd to JAK family kinases, TYK2
[1] = test system: Human CD45+ leukemic cells from patient derived xenografts (PDX); test: Ex vivo cytotoxicity (MTT) in PDX leukemic cells; settings: FIG. 6A
MHH-CALL-4 = test: Cytotoxicity assay (resazurin, 72 hours) in MHH-CALL-4 cells; assay type: cell-based, human; settings: for killing of MHH-CALL-4 cells (activity in words): correlated with degradation of GSPT1 and JAK2, FIG. 7F
Caco-2 cell permeability = assay type: in vitro ADME; settings: human, Caco-2; A to B (Table 4); read-out: Cac2 Papp A/B
Procedure: Compound Caco-2 cell permeability was determined using the Transwell® 0.4 μm polycarbonate membrane 96-well as described before (Uchida, et al. (2009) J Pharmacol Toxicol Methods 59(1): 39-43). Briefly, Caco-2 cells monolayers were incubated over 2 hours at 37° C. Fractions were collected from receivers (basal side, B), and concentrations were assessed by UPLC/MS (Waters; Milford, MA). All compounds were tested in triplicates. The A→B (or B→A) apparent permeability coefficients (Papp) of each compound were calculated using the equation, Papp=dQ/dt×1/AC0, where dQ/dt equals the flux of a drug across the monolayer, A equals the total insert well surface area, and C0 is the initial concentration of substrate in the donor compartment.

JAK2 = biological target: T1, JAK2 (Homo sapiens, UniProt O60674, I682F); test: Target degradation (Western Blot) in MHH-CALL-4 cells, JAK2; assay type: cell-based; settings: 100 nM PROTAC at 24 h
T1 construct: endogenous in cells; host or cells: MHH-CALL-4

GSPT1 = biological target: T2, GSPT1 (Homo sapiens, UniProt P15170+Q96SW2); test: Target degradation (Western Blot) in MHH-CALL-4 cells, GSPT1; assay type: cell-based; settings: 100 nM PROTAC at 24 h
T2 construct: endogenous in cells; host or cells: MHH-CALL-4

IKZF1 = biological target: T3, IKZF1 (Homo sapiens, UniProt Q13422+Q96SW2); test: Target degradation (Western Blot) in MHH-CALL-4 cells, IKZF1; assay type: cell-based; settings: 100 nM PROTAC at 24 h
T3 construct: endogenous in cells; host or cells: MHH-CALL-4

[2] = Homo sapiens, MHHCALL4, Table 6, starred: EC50 from partial dose response curve, read-out: MHHCALL4 EC50 from partial dose response curve
[3] = Homo sapiens, MHHCALL4, MHH-CALL-4 (Table 2), read-out: EC50 in MHH-CALL-4
[4] = Homo sapiens, MHHCALL4, MHH-CALL-4 (Table 1), read-out: EC50

T3 sequence (Q13422 whole entry): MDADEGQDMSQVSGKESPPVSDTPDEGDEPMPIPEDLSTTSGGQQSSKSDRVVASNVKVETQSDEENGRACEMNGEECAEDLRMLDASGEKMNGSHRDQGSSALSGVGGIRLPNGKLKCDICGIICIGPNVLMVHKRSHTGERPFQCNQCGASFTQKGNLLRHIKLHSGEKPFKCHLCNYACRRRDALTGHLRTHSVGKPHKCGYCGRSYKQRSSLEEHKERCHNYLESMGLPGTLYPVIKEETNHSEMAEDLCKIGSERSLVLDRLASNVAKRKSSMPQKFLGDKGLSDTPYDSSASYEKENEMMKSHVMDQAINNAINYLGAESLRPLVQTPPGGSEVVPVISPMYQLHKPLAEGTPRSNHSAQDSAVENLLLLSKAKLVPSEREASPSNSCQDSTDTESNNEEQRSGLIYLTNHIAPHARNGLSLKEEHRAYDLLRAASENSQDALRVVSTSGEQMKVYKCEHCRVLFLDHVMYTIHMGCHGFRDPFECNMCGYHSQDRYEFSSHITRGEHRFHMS
T3 sequence (Q96SW2 whole entry): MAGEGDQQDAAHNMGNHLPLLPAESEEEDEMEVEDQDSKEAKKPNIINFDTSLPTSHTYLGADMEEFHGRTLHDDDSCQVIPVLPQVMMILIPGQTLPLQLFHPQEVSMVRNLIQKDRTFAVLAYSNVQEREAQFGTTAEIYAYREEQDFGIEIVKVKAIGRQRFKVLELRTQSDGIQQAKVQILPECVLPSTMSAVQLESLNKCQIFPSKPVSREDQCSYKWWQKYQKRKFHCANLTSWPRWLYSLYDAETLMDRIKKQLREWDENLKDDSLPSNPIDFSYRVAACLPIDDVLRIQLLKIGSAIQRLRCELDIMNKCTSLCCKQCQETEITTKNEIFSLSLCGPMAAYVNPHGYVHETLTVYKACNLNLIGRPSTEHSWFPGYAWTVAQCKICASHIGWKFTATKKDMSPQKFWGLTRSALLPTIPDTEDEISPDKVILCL
T3 sequence (Q16531 whole entry partner): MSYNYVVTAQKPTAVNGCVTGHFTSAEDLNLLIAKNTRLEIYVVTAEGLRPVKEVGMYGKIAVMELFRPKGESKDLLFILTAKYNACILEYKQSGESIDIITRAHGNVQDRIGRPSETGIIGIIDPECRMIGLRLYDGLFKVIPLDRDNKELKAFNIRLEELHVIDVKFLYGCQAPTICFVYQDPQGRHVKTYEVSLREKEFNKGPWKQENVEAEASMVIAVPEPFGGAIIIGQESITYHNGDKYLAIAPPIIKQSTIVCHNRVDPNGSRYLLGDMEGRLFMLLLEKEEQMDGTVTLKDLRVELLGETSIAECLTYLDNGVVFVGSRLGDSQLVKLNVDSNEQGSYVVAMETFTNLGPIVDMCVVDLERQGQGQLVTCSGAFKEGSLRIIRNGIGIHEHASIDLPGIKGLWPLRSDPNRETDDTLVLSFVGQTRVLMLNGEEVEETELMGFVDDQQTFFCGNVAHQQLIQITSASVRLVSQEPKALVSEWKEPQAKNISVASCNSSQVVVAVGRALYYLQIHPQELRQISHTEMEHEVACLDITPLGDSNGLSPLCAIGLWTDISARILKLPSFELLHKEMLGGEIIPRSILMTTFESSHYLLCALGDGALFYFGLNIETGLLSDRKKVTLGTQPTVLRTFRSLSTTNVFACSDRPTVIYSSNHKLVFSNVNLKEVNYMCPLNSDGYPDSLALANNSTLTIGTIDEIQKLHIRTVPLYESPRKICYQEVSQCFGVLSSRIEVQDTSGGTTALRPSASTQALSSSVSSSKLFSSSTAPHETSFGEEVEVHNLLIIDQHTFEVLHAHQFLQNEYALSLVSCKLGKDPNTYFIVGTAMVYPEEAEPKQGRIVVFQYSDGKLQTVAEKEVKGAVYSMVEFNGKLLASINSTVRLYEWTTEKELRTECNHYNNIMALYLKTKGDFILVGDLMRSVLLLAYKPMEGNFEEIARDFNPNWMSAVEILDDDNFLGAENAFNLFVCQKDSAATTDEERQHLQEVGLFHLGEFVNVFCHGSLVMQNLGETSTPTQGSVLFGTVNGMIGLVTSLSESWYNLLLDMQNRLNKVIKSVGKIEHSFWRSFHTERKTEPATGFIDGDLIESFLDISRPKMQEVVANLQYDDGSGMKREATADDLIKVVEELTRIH
T1 sequence (O60674 whole entry I682F): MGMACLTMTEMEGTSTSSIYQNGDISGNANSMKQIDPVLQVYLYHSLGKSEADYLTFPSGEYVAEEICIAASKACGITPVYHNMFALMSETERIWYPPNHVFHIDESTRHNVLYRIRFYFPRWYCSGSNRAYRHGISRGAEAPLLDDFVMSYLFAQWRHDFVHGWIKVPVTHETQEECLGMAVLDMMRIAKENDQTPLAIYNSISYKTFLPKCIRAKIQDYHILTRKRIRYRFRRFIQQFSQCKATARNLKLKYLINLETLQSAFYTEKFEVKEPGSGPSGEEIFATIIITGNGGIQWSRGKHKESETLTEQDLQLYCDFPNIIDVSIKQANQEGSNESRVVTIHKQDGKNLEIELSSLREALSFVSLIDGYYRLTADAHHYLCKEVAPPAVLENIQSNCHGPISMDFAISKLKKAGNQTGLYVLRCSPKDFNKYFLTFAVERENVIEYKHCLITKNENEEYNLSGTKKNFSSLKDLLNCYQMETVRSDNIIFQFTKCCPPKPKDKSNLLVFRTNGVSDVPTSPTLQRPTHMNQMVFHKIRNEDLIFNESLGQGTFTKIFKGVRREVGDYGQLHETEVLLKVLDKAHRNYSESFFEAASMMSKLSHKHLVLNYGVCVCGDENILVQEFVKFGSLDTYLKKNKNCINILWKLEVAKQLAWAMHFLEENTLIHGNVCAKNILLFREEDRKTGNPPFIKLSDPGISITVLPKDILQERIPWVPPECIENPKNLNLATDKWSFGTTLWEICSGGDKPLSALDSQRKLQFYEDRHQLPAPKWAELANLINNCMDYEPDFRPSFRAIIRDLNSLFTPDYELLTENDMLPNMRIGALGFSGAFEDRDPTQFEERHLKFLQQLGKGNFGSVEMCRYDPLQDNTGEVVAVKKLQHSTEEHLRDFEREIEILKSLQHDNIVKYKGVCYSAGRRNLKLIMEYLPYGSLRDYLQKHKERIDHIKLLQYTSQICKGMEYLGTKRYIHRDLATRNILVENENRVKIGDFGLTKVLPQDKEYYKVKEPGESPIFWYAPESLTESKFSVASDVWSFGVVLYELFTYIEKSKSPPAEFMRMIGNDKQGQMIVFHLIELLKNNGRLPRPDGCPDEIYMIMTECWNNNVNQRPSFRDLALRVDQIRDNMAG
T2 sequence (P15170 whole entry): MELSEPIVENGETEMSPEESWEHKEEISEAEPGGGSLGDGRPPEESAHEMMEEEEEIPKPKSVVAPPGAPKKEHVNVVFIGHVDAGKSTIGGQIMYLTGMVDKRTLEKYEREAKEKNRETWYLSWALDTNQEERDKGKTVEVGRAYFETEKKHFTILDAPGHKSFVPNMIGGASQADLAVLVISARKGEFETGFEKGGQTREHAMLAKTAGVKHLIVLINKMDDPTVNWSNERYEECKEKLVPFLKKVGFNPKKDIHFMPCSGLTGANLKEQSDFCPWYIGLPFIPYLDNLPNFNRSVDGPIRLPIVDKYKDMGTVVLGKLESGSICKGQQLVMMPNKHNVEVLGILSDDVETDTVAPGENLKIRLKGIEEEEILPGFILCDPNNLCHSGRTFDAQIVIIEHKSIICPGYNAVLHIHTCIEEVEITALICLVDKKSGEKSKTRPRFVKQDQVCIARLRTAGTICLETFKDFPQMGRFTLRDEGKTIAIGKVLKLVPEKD
T2 sequence (Q96SW2 whole entry): as the sequence (Q96SW2 whole entry) above
T2 sequence (Q16531 whole entry partner): as the sequence (Q16531 whole entry partner) above
TYK2, sequence (P29597 whole entry): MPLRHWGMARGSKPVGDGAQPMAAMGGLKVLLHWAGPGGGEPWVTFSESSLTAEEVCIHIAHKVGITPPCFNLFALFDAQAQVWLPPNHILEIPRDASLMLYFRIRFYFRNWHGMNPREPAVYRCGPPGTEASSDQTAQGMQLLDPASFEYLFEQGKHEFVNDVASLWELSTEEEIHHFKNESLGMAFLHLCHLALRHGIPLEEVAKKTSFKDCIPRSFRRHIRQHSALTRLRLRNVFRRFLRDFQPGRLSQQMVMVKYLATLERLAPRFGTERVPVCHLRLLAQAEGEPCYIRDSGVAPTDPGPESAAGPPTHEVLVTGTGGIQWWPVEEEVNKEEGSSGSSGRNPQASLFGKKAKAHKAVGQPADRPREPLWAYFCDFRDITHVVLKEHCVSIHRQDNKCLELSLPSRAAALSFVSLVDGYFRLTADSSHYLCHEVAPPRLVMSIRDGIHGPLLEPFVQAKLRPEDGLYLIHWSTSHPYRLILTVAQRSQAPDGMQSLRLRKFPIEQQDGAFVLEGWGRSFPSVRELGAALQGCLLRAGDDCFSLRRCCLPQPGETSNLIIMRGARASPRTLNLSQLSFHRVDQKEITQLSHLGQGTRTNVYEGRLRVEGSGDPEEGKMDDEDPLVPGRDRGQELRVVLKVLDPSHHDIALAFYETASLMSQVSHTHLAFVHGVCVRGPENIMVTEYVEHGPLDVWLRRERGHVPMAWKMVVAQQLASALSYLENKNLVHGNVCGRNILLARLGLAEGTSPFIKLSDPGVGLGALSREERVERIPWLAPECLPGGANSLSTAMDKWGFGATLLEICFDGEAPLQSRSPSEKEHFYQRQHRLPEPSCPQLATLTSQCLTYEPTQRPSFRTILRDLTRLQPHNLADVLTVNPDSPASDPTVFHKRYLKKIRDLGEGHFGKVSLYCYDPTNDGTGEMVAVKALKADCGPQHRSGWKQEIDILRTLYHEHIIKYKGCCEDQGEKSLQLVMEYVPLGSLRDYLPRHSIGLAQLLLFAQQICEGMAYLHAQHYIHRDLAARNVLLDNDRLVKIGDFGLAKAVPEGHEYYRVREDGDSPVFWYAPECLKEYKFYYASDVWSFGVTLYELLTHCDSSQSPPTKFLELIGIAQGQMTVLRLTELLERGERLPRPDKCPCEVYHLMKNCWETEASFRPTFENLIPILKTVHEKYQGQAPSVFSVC

## CCS(=O)(=O)N1CC(CC#N)(n2cc(-c3ncnc4[nH]ccc34)cn2)C1 [Baricitinib, baricitinib, reference compound]
TYK2
  Kd: 0.0013 µM

## CC(=O)Nc1cc(Oc2ccc3c(nc(Nc4ccc(F)cc4F)n3C)c2C)ccn1 [CHZ868, reference compound]
[1]
  cytotoxicity in PDX cells ex vivo: not
MHH-CALL-4; MHH-CALL-4 (Table 2), read-out: EC50 in MHH-CALL-4
  EC50: 0.18 µM

## CCS(=O)(=O)N1CC(CC#N)(n2cc(-c3nc(Nc4ccc(C(=O)NCCN5CCN(c6ccc7c(c6)C(=O)N(C6CCC(=O)NC6=O)C7=O)CC5)cc4)nc4[nH]ccc34)cn2)C1 (centres unmarked) [Compound 8]
Caco-2 cell permeability
  Papp A→B at 2 h: 0.02 nm/s
MHH-CALL-4
  killing of MHH-CALL-4 cells (activity in words): intermediately effective; also recorded: reduced activity

## CCS(=O)(=O)N1CC(CC#N)(n2cc(-c3nc(Nc4ccc(C(=O)NCCCNc5ccc6c(c5)C(=O)N(C5CCC(=O)NC5=O)C6=O)cc4)nc4[nH]ccc34)cn2)C1 (centres unmarked) [Compound 53]
JAK2
  Target Degradation (Western Blot) JAK2: 1 (1 = None (<20% degradation at 24 h))
GSPT1
  Target Degradation (Western Blot) GSPT1: 3 (3 = Strong (>60% degradation at 24 h))
MHH-CALL-4; [2]
  EC50: 0.0346 µM
MHH-CALL-4
  killing of MHH-CALL-4 cells (activity in words): intermediately effective

## CCS(=O)(=O)N1CC(CC#N)(n2cc(-c3nc(Nc4ccc(C(=O)NCCCN5CCN(c6ccc7c(c6)C(=O)N(C6CCC(=O)NC6=O)C7=O)CC5)cc4)nc4[nH]ccc34)cn2)C1 (centres unmarked) [Compound 56]
IKZF1
  Target Degradation (Western Blot) IKZF1: 1 (1 = None (<20% degradation at 24 h))
JAK2
  Target Degradation (Western Blot) JAK2: 2 (2 = Medium (20-40% degradation at 24 h))
MHH-CALL-4; [2]
  EC50: 0.562 µM
MHH-CALL-4
  killing of MHH-CALL-4 cells (activity in words): intermediately effective

## CCS(=O)(=O)N1CC(CC#N)(n2cc(-c3nc(Nc4ccc(C(=O)NCCCNC(=O)COc5cccc6c5C(=O)N(C5CCC(=O)NC5=O)C6=O)cc4)nc4[nH]ccc34)cn2)C1 (centres unmarked) [Compound 59]
IKZF1
  Target Degradation (Western Blot) IKZF1: 1 (1 = None (<20% degradation at 24 h))
JAK2
  Target Degradation (Western Blot) JAK2: 1 (1 = None (<20% degradation at 24 h))
MHH-CALL-4; [2]
  EC50: 4.19 µM
MHH-CALL-4
  killing of MHH-CALL-4 cells (activity in words): relatively low activity

## CCS(=O)(=O)N1CC(CC#N)(n2cc(-c3nc(Nc4ccc(C(=O)NCCCCNc5cccc6c5C(=O)N(C5CCC(=O)N(C)C5=O)C6=O)cc4)nc4[nH]ccc34)cn2)C1 (centres unmarked) [Compound 61]
IKZF1
  Target Degradation (Western Blot) IKZF1: 2 (2 = Medium (20-40% degradation at 24 h))
JAK2
  Target Degradation (Western Blot) JAK2: 1 (1 = None (<20% degradation at 24 h))
MHH-CALL-4; [2]
  EC50: 0.0515 µM
MHH-CALL-4
  killing of MHH-CALL-4 cells (activity in words): intermediately effective

## CCS(=O)(=O)N1CC(CC#N)(n2cc(-c3nc(Nc4ccc(C(=O)NCCCCNc5ccc6c(c5)C(=O)N(C5CCC(=O)NC5=O)C6=O)cc4)nc4[nH]ccc34)cn2)C1 (centres unmarked) [Compound 80]
IKZF1
  Target Degradation (Western Blot) IKZF1: 1 (1 = None (<20% degradation at 24 h))
JAK2
  Target Degradation (Western Blot) JAK2: 1 (1 = None (<20% degradation at 24 h))
MHH-CALL-4; Homo sapiens, MHHCALL4, Table 6, no star, read-out: MHHCALL4 EC50
  EC50: > 5.5 µM
MHH-CALL-4
  killing of MHH-CALL-4 cells (activity in words): relatively low activity

## Nc1cccc2c1CN(C1CCC(=O)NC1=O)C2=O (centres unmarked) [Lenalidomide, lenalidomide, reference compound]
MHH-CALL-4; [3]
  EC50: 34.5 µM

## Nc1cccc2c1C(=O)N(C1CCC(=O)NC1=O)C2=O (centres unmarked) [Pomalidomide, pomalidomide, reference compound]
MHH-CALL-4; [3]
  EC50: 63.7 µM

## N#CC[C@H](C1CCCC1)n1cc(-c2ncnc3[nH]ccc23)cn1 [Ruxolitinib, ruxolitinib, reference compound]
MHH-CALL-4; Homo sapiens, MHHCALL4, read-out: EC50 in MHH-CALL-4
  EC50: 25.8 µM
MHH-CALL-4; Homo sapiens, MHHCALL4, read-out: MHHCALL4 EC50
  EC50: 25.8 µM

## CCCn1cc(-c2nc(Nc3ccc(C(=O)NCCOCCOCCOCCOCCNc4cccc5c4C(=O)N(C4CCC(=O)NC4=O)C5=O)cc3)nc3[nH]ccc23)cn1 (centres unmarked) [SJ000986049]
MHH-CALL-4; [4]
  EC50: 2.3 µM

## CCCn1cc(-c2nc(Nc3ccc(C(=O)NCCOCCOCCOCCOCCOCCOCCNc4cccc5c4C(=O)N(C4CCC(=O)NC4=O)C5=O)cc3)nc3[nH]ccc23)cn1 (centres unmarked) [SJ000986050]
MHH-CALL-4; [4]
  EC50: 0.72 µM

## CCCn1cc(-c2nc(NCCOCCOCCOCCOCCOCCOCCNC(=O)CNc3cccc4c3CN(C3CCC(=O)NC3=O)C4=O)nc3[nH]ccc23)cn1 (centres unmarked) [SJ000986078, 2-((2-(2,6-dioxopiperidin-3-yl)-1-oxoisoindolin-4-yl)amino)-N-(20-((4-(1-propyl-1H-pyrazol-4-yl)-7H-pyrrolo[2,3-d]pyrimidin-2-yl)amino)-3,6,9,12,15,18-hexaoxaicosyl)acetamide]
MHH-CALL-4; [4]
  EC50: > 100 µM

## CCCn1cc(-c2nc(NCCOCCOCCOCCOCCNC(=O)CNc3cccc4c3CN(C3CCC(=O)NC3=O)C4=O)nc3[nH]ccc23)cn1 (centres unmarked) [SJ000986079, 2-((2-(2,6-dioxopiperidin-3-yl)-1-oxoisoindolin-4-yl)amino)-N-(14-((4-(1-propyl-1H-pyrazol-4-yl)-7H-pyrrolo[2,3-d]pyrimidin-2-yl)amino)-3,6,9,12-tetraoxatetradecyl)acetamide]
MHH-CALL-4; [4]
  EC50: > 100 µM

## CCCn1cc(-c2nc(Nc3ccc(C(=O)NCCOCCOCCNc4cccc5c4C(=O)N(C4CCC(=O)NC4=O)C5=O)cc3)nc3[nH]ccc23)cn1 (centres unmarked) [SJ000986339]
MHH-CALL-4; [4]
  EC50: > 100 µM

## CCCn1cc(-c2nc(Nc3ccc(NC(=O)CCOCCOCCOCCOCCOCCOCCNc4cccc5c4C(=O)N(C4CCC(=O)NC4=O)C5=O)cc3)nc3[nH]ccc23)cn1 (centres unmarked) [SJ000986341]
MHH-CALL-4; [4]
  EC50: 5.83 µM

## CCCn1cc(-c2nc(Nc3ccc(NC(=O)CCOCCOCCOCCOCCOCCNc4cccc5c4C(=O)N(C4CCC(=O)NC4=O)C5=O)cc3)nc3[nH]ccc23)cn1 (centres unmarked) [SJ000986342]
MHH-CALL-4; [4]
  EC50: 6.89 µM

## CCCn1cc(-c2nc(Nc3ccc(C(=O)NCCOCCOCCOCCOCCOCCOCCNc4cccc5c4C(=O)N(C4CCCNC4=O)C5=O)cc3)nc3[nH]ccc23)cn1 (centres unmarked) [SJ000986343]
MHH-CALL-4; [4]
  EC50: 12.8 µM

## O=C1CCC(N2C(=O)c3ccccc3C2=O)C(=O)N1 (centres unmarked) [Thalidomide, thalidomide, reference compound]
MHH-CALL-4; [3]
  EC50: 60 µM
